Laboratory results reported in ChEMBL document CHEMBL5506024, “Multitarget μ-Opioid Receptor Agonists─Neuropeptide FF Receptor Antagonists Induce Potent Antinociception with Reduced Adverse Side Effects” (J Med Chem, 2024).
Numbered stars: 1 amine (or outer) side, 2 acyl side, 3 side chain; on linkers, the order of the positions; unused ones are H or OH. Square brackets hold non-standard residues; d marks the D form. Peptide text beside a SMILES is read from it. Nva(5-(4-Bn-piperidin-1-yl)) = N[C@@H](CCCN1CCC(Cc2ccccc2)CC1)C(=O)O; X2 = O=C1[C@@H](N[*:1])Cc2ccccc2CN1CCCC(=O)[*:2]; X1 = O=C1[C@@H](N[*:1])Cc2ccccc2CN1CCC(=O)[*:2]; Tic(7-OH) = O=C(O)[C@@H]1Cc2ccc(O)cc2CN1; Dmt = Cc1cc(O)cc(C)c1C[C@H](N)C(=O)O; d(hArg) = N=C(N)NCCCC[C@@H](N)C(=O)O; Nlys = NCCCCNCC(=O)O; βAla = NCCC(=O)O; Sar = CNCC(=O)O

Key:
Assay type in all cases: functional, cell-based; call rule not given here
[1] = target: T1, Mu-type opioid receptor (Homo sapiens, UniProt P35372); experiment: Agonist activity at human MOP expressed in HEK293 cells coexpressing GloSensor-20F assessed as inhibition of forskolin-induced cAMP accumulation
[2] = target: T1, Mu-type opioid receptor; experiment: Agonist activity at human MOP expressed in HEK293 cells coexpressing GloSensor-20F assessed as inhibition of forskolin-induced cAMP accumulation relative to control
[3] = target: T1, Mu-type opioid receptor; experiment: Agonist activity at human Rluc8-tagged MOP expressed in HEK293 cells coexpressing eYFP-tagged beta-arrestin-2 assessed as beta-arrestin-2 recruitment incubated for 5 mins by luminometer analysis
[4] = target: T1, Mu-type opioid receptor; experiment: Agonist activity at human Rluc8-tagged MOP expressed in HEK293 cells coexpressing eYFP-tagged beta-arrestin-2 assessed as beta-arrestin-2 recruitment incubated for 5 mins by luminometer analysis relative to control

T1 sequence (P35372 whole entry): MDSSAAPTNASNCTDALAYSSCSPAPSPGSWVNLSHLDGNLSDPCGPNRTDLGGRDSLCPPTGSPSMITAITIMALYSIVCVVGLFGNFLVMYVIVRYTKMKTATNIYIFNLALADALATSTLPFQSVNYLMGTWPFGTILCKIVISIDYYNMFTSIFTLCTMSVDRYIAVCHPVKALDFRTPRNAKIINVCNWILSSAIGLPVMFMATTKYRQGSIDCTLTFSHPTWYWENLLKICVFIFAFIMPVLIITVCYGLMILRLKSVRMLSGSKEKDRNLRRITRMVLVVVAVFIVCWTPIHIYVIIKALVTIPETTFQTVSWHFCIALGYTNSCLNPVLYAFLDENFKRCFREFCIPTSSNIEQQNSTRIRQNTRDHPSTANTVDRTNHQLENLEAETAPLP

Row | SMILES | Emax ([2]; filed as agonist) | EC50 ([3]; read-out: EC50) | Emax ([4]; filed as agonist) | further results
1 | Cc1cc(O)cc(C)c1C[C@H](N)C(=O)N[C@H](CCCNC(=N)N)C(=O)N[C@H]1Cc2ccccc2CN(CCC(=O)N[C@H](CCCN2CCC(Cc3ccccc3)CC2)C(=O)N[C@@H](Cc2ccccc2)C(N)=O)C1=O | 95% | 178 nM | 76% | EC50 [1]: 14 nM
2 | Cc1cc(O)cc(C)c1C[C@H](N)C(=O)N[C@H](CCCNC(=N)N)C(=O)N[C@H]1Cc2ccccc2CN(CCC(=O)N[C@@H](CCCN2CCC(Cc3ccccc3)CC2)C(=O)N[C@H](Cc2ccccc2)C(N)=O)C1=O | 109% | – | 59% | –
3 | Cc1cc(O)cc(C)c1C[C@H](N)C(=O)N(CCCCN)CC(=O)N[C@H]1Cc2ccccc2CN(CCC(=O)N[C@@H](CCCN2CCC(Cc3ccccc3)CC2)C(=O)N[C@@H](Cc2ccccc2)C(N)=O)C1=O (H-[Dmt][Nlys][X1][Nva(5-(4-Bn-piperidin-1-yl))]F-NH2) | – | – | – | Emax [2]: 15%; EC50 ([3]; hek293): Not Active
4 | Cc1cc(O)cc(C)c1C[C@H](N)C(=O)N[C@H](CCCNC(=N)N)C(=O)N[C@H]1Cc2ccccc2CN(CCC(=O)N[C@@H](CCCN2CCC(Cc3ccccc3)CC2)C(=O)N[C@@H](Cc2ccccc2)C(=O)NCCC(N)=O)C1=O (H-[Dmt][dR][X1][Nva(5-(4-Bn-piperidin-1-yl))]F[βAla]-NH2) | 95% | – | – | Emax [4]: 31%
5 | Cc1cc(O)cc(C)c1C[C@H](N)C(=O)N1CCC[C@@H]1C(=O)N[C@H]1Cc2ccccc2CN(CC(=O)N[C@@H](CCCN2CCC(Cc3ccccc3)CC2)C(=O)N[C@@H](Cc2ccccc2)C(N)=O)C1=O | 85% | 162 nM | – | EC50 [1]: 21 nM; Emax [4]: 27%
6 | Cc1cc(O)cc(C)c1C[C@H](N)C(=O)N[C@H](CCCNC(=N)N)C(=O)N[C@H]1Cc2ccccc2CN(CCC(=O)N[C@@H](CCCN2CCC(Cc3ccccc3)CC2)C(=O)N[C@@H](CC(C)C)C(N)=O)C1=O (H-[Dmt][dR][X1][Nva(5-(4-Bn-piperidin-1-yl))]L-NH2) | 70% | – | – | Emax [4]: 38%
7 | Cc1cc(O)cc(C)c1C[C@H](N)C(=O)N[C@H](CCCN1CCC(Cc2ccccc2)CC1)C(=O)N[C@H]1Cc2ccccc2CN(CCC(=O)N[C@@H](CCCN2CCC(Cc3ccccc3)CC2)C(=O)N[C@@H](Cc2ccccc2)C(N)=O)C1=O | – | – | – | Emax [2]: 35%
8 | Cc1cc(O)cc(C)c1C[C@H](N)C(=O)N[C@H](CCCNC(=N)N)C(=O)N[C@H]1Cc2ccccc2CN(CCCC(=O)N[C@@H](CCCN2CCC(Cc3ccccc3)CC2)C(=O)N[C@@H](Cc2c[nH]c3ccccc23)C(N)=O)C1=O (H-[Dmt][dR][X2][Nva(5-(4-Bn-piperidin-1-yl))]W-NH2) | 90% | – | – | Emax [4]: 30%
9 | N=C(N)NCCC[C@@H](NC(=O)[C@@H]1Cc2ccc(O)cc2CN1)C(=O)N[C@H]1Cc2ccccc2CN(CCC(=O)N[C@@H](CCCN2CCC(Cc3ccccc3)CC2)C(=O)N[C@@H](Cc2ccccc2)C(N)=O)C1=O (H-[Tic(7-OH)][dR][X1][Nva(5-(4-Bn-piperidin-1-yl))]F-NH2) | 46% | 1340 nM | – | Emax [4]: 33%
10 | Cc1cc(O)cc(C)c1C[C@H](N)C(=O)N[C@H](CCCNC(=N)N)C(=O)N[C@H](Cc1ccccc1)C(=O)N(C)CCC(=O)N[C@@H](CCCN1CCC(Cc2ccccc2)CC1)C(=O)N[C@@H](Cc1ccccc1)C(N)=O | 65% | – | – | EC50 ([1]; hek293): 180 nM
11 | Cc1cc(O)cc(C)c1C[C@H](N)C(=O)N[C@H](CCCNC(=N)N)C(=O)N[C@H]1Cc2ccccc2CN(CCC(=O)N[C@@H](CCCN2CCC(Cc3ccccc3)CC2)C(=O)N[C@@H](Cc2ccc(O)cc2)C(N)=O)C1=O (H-[Dmt][dR][X1][Nva(5-(4-Bn-piperidin-1-yl))]Y-NH2) | 88% | – | 64% | –
12 | Cc1cc(O)cc(C)c1C[C@H](N)C(=O)N[C@H](CCCNC(=N)N)C(=O)N[C@@H](Cc1ccccc1)C(=O)N(C)CC(=O)N[C@@H](CCCN1CCC(Cc2ccccc2)CC1)C(=O)N[C@@H](Cc1ccccc1)C(N)=O (H-[Dmt][dR]F[Sar][Nva(5-(4-Bn-piperidin-1-yl))]F-NH2) | 97% | 53 nM | 96% | –
13 | Cc1cc(O)cc(C)c1C[C@H](N)C(=O)N[C@H](CCCNC(=N)N)C(=O)N[C@@H](Cc1ccccc1)C(=O)N(C)[C@@H](C)C(=O)N[C@@H](CCCN1CCC(Cc2ccccc2)CC1)C(=O)N[C@@H](Cc1ccccc1)C(N)=O | 99% | 92 nM | 87% | EC50 [1]: 17 nM
14 | Cc1cc(O)cc(C)c1C[C@H](N)C(=O)N[C@H](CCCNC(=N)N)C(=O)N[C@H]1Cc2c(ccc3ccccc23)CN(CCC(=O)N[C@@H](CCCN2CCC(Cc3ccccc3)CC2)C(=O)N[C@@H](Cc2ccccc2)C(N)=O)C1=O | 111% | 56 nM | 60% | EC50 [1]: 5.3 nM
15 | Cc1cc(O)cc(C)c1C[C@H](N)C(=O)N[C@H](CCCCN)C(=O)N[C@H]1Cc2ccccc2CN(CCC(=O)N[C@@H](CCCN2CCC(Cc3ccccc3)CC2)C(=O)N[C@@H](Cc2ccccc2)C(N)=O)C1=O (H-[Dmt][dK][X1][Nva(5-(4-Bn-piperidin-1-yl))]F-NH2) | 67% | – | – | EC50 [1]: 30 nM; EC50 ([3]; hek293): Not Active
16 | Cc1cc(O)cc(C)c1C[C@H](N)C(=O)N[C@H](CCCNC(=N)N)C(=O)N[C@H]1Cc2ccccc2CN(CCCC(=O)N[C@@H](CCCN2CCC(Cc3ccccc3)CC2)C(=O)N[C@H](C(N)=O)C(C)C)C1=O (H-[Dmt][dR][X2][Nva(5-(4-Bn-piperidin-1-yl))]V-NH2) | 101% | – | 53% | –
17 | Cc1cc(O)cc(C)c1C[C@H](N)C(=O)N[C@H](CCCNC(=N)N)C(=O)N[C@H]1Cc2ccccc2CN(CCC(=O)N[C@@H](CCCN2CCC(Cc3ccccc3)CC2)C(=O)N[C@@H](Cc2c[nH]c3ccccc23)C(N)=O)C1=O (H-[Dmt][dR][X1][Nva(5-(4-Bn-piperidin-1-yl))]W-NH2) | 81% | – | 42% | –
18 | Cc1cc(O)cc(C)c1C[C@H](N)C(=O)N[C@H](CCCNC(=N)N)C(=O)N[C@H]1Cc2ccccc2CN(CC(=O)N[C@@H](CCCN2CCC(Cc3ccccc3)CC2)C(=O)N[C@@H](Cc2ccccc2)C(N)=O)C1=O | 76% | 704 nM | – | EC50 [1]: 11.3 nM; Emax [4]: 18%
19 | Cc1cc(O)cc(C)c1C[C@H](N)C(=O)N[C@H](CCCCNC(=N)N)C(=O)N[C@H]1Cc2ccccc2CN(CCC(=O)N[C@@H](CCCN2CCC(Cc3ccccc3)CC2)C(=O)N[C@@H](Cc2ccccc2)C(N)=O)C1=O (H-[Dmt][d(hArg)][X1][Nva(5-(4-Bn-piperidin-1-yl))]F-NH2) | – | – | – | EC50 [1]: 24 nM; Emax [2]: 39%; EC50 ([3]; hek293): Not Active
20 | Cc1cc(O)cc(C)c1C[C@H](N)C(=O)N[C@H](CCCNC(=N)N)C(=O)N[C@@H](Cc1ccccc1)C(=O)NCCC(=O)N[C@@H](CCCN1CCC(Cc2ccccc2)CC1)C(=O)N[C@@H](Cc1ccccc1)C(N)=O (H-[Dmt][dR]F[βAla][Nva(5-(4-Bn-piperidin-1-yl))]F-NH2) | 101% | – | 53% | –
21 | CC[C@H](C)[C@H](NC(=O)[C@H](CCCN1CCC(Cc2ccccc2)CC1)NC(=O)CCN1Cc2ccccc2C[C@H](NC(=O)[C@@H](CCCNC(=N)N)NC(=O)[C@@H](N)Cc2c(C)cc(O)cc2C)C1=O)C(N)=O (H-[Dmt][dR][X1][Nva(5-(4-Bn-piperidin-1-yl))]I-NH2) | 110% | – | 49% | –
22 | Cc1cc(O)cc(C)c1C[C@H](N)C(=O)N[C@H](CCCNC(=N)N)C(=O)N[C@H]1Cc2ccccc2CN(CCC(=O)N[C@@H](CCCN2CCC(Cc3ccccc3)CC2)C(=O)N[C@H](C(N)=O)C(C)C)C1=O (H-[Dmt][dR][X1][Nva(5-(4-Bn-piperidin-1-yl))]V-NH2) | 124% | – | 52% | –
23 | Cc1cc(O)cc(C)c1C[C@H](N)C(=O)N[C@H](CCCNC(=N)N)C(=O)N[C@@H](Cc1ccccc1)C(=O)N(C)CC(=O)N[C@@H](CCCN1CCC(Cc2ccccc2)CC1)C(=O)N[C@H](C(N)=O)C(C)C (H-[Dmt][dR]F[Sar][Nva(5-(4-Bn-piperidin-1-yl))]V-NH2) | 110% | 59 nM | 116% | –
24 | Cc1cc(O)cc(C)c1C[C@H](N)C(=O)N[C@H](CCCNC(=N)N)C(=O)N[C@@H](Cc1ccccc1)C(=O)N(C)CCC(=O)N[C@@H](CCCN1CCC(Cc2ccccc2)CC1)C(=O)N[C@@H](Cc1ccccc1)C(N)=O | – | 45 nM | – | EC50 [1]: 8.9 nM
25 | Cc1cc(O)cc(C)c1C[C@H](N)C(=O)N[C@H](CCCNC(=N)N)C(=O)N[C@H]1Cc2ccccc2CN(CCC(=O)N[C@@H](CCCN2CCc3ccccc3C2)C(=O)N[C@@H](Cc2ccccc2)C(N)=O)C1=O | 98% | 25 nM | 60% | –
26 | Cc1cc(O)cc(C)c1C[C@H](N)C(=O)N[C@H](CCCNC(=N)N)C(=O)N[C@@H](Cc1ccccc1)C(=O)N(C)[C@H](C)C(=O)N[C@@H](CCCN1CCC(Cc2ccccc2)CC1)C(=O)N[C@@H](Cc1ccccc1)C(N)=O | 111% | 154 nM | 83% | –
27 | Cc1cc(O)cc(C)c1C[C@@H](N)C(=O)N[C@H](CCCNC(=N)N)C(=O)N[C@@H](Cc1ccccc1)C(=O)N(C)CCC(=O)N[C@@H](CCCN1CCC(Cc2ccccc2)CC1)C(=O)N[C@@H](Cc1ccccc1)C(N)=O | 110% | – | 49% | –
28 | Cc1cc(O)cc(C)c1C[C@H](N)C(=O)N[C@H](CCCNC(=N)N)C(=O)N[C@H]1Cc2ccccc2CN(CCCC(=O)N[C@@H](CCCN2CCC(Cc3ccccc3)CC2)C(=O)N[C@@H](Cc2ccccc2)C(N)=O)C1=O (H-[Dmt][dR][X2][Nva(5-(4-Bn-piperidin-1-yl))]F-NH2) | 108% | – | – | Emax [4]: 31%
